Reference: PMC11387234, “Identification of novel inhibitors of the transcriptional coactivator MRTF-A for HCC therapy” (Molecular Therapy Oncology, 2024)

What was measured:
[1] = tested on: HuH7 cells; experiment: Cell proliferation assay (cell counting) in HuH7 cells; assay type: cell-based; conditions: for Inhibitory effects on HCC proliferation as compared to inhibitor 10: 10 μM, 5 days; for Concentration sufficient to cease HCC cell proliferation: titration 10, 7.5, 5, 2.5 μM
Protocol: (§1) Cells were seeded and counted every 24 h for 5 days by using a Neubauer counting chamber.

[2] = tested on: SRF; experiment: SRF reporter gene (5×SRE-luciferase) assay; assay type: cell-based; conditions: HuH7 cells, 24 h; for SRF activity (5×SRE-luciferase): 30 μM; for Reduction in SRF activity: 5 μM
Protocol: HuH7 cells were seeded in a 12-well plate and transiently transfected with 0.25 μg 5×SRE and 0.15 μg Renilla luciferase simian virus 40 (SV40) promoter reporter as an internal control. The next day, cells were treated with inhibitors, as indicated in the figure legends, and the Dual-Luciferase Reporter Assay System (Promega, Madison, Wisconsin, USA) and the BioFix Lumi-10 (Macherey-Nagel, Düren, Germany) were used. The firefly luciferase activity was normalized to the Renilla luciferase activity to compensate for divergent transfection efficiencies.

[3] = tested on: HuH6 cells; experiment: Cell proliferation assay (cell counting) in HuH6 cells; assay type: cell-based
Protocol: as §1

[4] = tested on: HuH7 cells; experiment: SA-β-Gal staining (cellular senescence) in HuH7 cells; assay type: cell-based; conditions: for Concentration that significantly increases SA-β-Gal-positive cells (senescence induction): HuH7 cells
Protocol: (§2) Cellular senescence of treated cells was determined using the Senescence-β-galactosidase staining kit according to the manufacturer’s instructions (Cell Signaling Technology, Danvers, MA, USA). 300 cells were counted. The ratio stained to unstained cells were used to calculate the percentage of SA-β-gal-positive cells.

[5] = tested on: MRTF-A; experiment: Immunofluorescence of MRTF-A nuclear localization; assay type: cell-based; conditions: for MRTF-A nuclear localization reduced to: HuH7 and HuH6 cells (Figures 3B and S3A)
Protocol: Cells were fixated by a 10-min incubation with 4% paraformaldehyde in PBS. To permeabilize the cells, 0.2% Triton X-100 in PBS was used. Blocking was done with 1% BSA in PBS for 30 min at 37°C, followed by incubation with the respective primary antibodies (Table S4) for 1 h at room temperature and the secondary Alexa Fluor 488-coupled antibody (Invitrogen) (Table S5). The nucleus was stained with DAPI (Sigma-Aldrich). Images were taken using a fluorescence microscope (Nikon).

[6] = tested on: HuH7 cells; experiment: Matrigel invasion assay; assay type: cell-based; conditions: 20 h
Protocol: The cell invasion assay was performed using Corning BioCoat Matrigel Invasion Chambers (Corning, Tewksbury, MA, USA) according to the manufacturer’s instructions. 2.5 × 10^4 cells per well were seeded and incubated for 20 h at 37°C. The invaded cells were fixed with methanol, stained with crystal violet, and counted under a light microscope (Carl Zeiss, Oberkochen, Germany).

[7] = tested on: SK3 channels; parameters: method as in Sørensen et al. 22; conditions: relative to NS8593 (Figure 1C); ref Sørensen et al. 22; cited from earlier work
[8] = target: TRPM7 (Mus musculus, UniProt Q923J1); experiment: Aequorin-based Ca2+ influx assay for TRPM7 inhibition; assay type: cell-based; conditions: for Hill slopes for TRPM7 inhibition: Ca2+ influx assay, logistic equation fits, n = 3; for TRPM7 affinity compared to NS: relative to NS8593 (Figure 1C)
Sequence of TRPM7 (Q923J1 whole entry): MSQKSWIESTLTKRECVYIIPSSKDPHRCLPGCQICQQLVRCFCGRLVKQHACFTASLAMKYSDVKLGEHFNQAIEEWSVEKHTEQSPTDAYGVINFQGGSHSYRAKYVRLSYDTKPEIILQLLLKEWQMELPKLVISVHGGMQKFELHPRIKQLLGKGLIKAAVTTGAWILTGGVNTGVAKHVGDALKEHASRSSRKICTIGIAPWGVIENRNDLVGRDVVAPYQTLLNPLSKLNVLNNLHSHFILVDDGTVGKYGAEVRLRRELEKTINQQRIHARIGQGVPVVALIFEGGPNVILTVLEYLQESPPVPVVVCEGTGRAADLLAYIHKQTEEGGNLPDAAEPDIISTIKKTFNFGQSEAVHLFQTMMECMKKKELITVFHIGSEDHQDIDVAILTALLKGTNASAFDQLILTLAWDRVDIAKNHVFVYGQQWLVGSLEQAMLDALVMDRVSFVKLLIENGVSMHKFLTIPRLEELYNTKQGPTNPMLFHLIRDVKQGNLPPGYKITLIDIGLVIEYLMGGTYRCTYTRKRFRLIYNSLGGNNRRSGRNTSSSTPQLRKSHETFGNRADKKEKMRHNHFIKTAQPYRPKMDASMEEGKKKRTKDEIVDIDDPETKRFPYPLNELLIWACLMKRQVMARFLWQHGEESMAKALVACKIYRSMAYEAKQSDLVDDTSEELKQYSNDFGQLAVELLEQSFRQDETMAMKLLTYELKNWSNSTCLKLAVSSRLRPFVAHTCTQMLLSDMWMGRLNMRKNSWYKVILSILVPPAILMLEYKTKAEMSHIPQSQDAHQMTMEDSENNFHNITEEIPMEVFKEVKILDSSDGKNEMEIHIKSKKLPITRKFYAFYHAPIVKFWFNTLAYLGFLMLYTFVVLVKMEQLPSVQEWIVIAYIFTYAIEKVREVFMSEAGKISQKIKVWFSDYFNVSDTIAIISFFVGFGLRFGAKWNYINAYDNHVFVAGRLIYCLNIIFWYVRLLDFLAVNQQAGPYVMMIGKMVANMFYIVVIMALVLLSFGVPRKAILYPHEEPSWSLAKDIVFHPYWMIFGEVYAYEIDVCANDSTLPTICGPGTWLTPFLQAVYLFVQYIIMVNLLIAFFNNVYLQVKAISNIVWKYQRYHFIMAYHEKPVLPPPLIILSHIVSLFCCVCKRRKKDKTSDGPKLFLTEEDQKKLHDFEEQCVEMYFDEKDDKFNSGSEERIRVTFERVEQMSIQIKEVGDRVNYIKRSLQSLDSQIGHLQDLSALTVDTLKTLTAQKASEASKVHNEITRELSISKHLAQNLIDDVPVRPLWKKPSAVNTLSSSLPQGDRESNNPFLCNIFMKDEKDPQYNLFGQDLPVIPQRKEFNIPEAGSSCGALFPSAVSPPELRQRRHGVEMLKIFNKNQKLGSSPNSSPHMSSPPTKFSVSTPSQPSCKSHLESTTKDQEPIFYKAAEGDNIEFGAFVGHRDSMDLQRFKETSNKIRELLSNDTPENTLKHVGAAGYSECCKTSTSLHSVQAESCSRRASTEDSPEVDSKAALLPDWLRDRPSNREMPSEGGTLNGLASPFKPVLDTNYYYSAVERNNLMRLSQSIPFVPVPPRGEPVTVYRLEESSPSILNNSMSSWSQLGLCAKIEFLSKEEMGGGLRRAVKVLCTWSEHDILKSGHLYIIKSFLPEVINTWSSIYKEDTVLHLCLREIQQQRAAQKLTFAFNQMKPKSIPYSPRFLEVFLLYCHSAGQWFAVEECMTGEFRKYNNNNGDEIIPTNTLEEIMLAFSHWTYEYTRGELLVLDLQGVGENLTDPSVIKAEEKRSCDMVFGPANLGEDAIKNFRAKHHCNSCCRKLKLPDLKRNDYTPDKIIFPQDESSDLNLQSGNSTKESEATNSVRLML
Protocol: HEK293T cells were transfected with 2 μg TRPM7 plasmid DNA and 0.1 μg pG5A plasmid DNA. After 24 h, the cells were washed with Mg^2+-free HEPES-buffered saline (HBS) containing 140 mM NaCl, 5.4 mM KCl, 0.5 mM CaCl2, 5 mM HEPES (pH 7.4), and 10 mM glucose and resuspended in Mg^2+-free HBS. After 30 min of incubation with 5 μM coelenterazine (Biaffin) at room temperature to reconstitute the aequorin, cells were washed two times by centrifugation at 2,000 rpm for 5 min (Heraeus Pico 17 microcentrifuge, Thermo Fisher Scientific). Then, they were resuspended in Mg^2+-free HBS and plated into 96-well plates. Luminescence was detected at room temperature using a CLARIOstar microplate reader (BMG Labtech). CaCl2-containing Mg^2+-free HBS was injected in the presence or absence of the inhibitors to increase the extracellular Ca^2+ concentration to 5 mM. Cell lysis with 0.1% (v/v) Triton X-100 in the Mg^2+-free HBS was used to terminate the experiment, and total bioluminescence was measured. The analysis of the bioluminescence rates (counts/s) was done in 1-s intervals and calibrated as [Ca^2+]i values using the following equation: p[Ca^2+]i=0,332588(−log(k))+5,5593 k represents the rate of aequorin consumption.
The following equation was used to determine the IC50 values of the inhibitors: E(c)=Emin+[…]/1+c^h/IC50^h
E(c) is the functional effect at the concentration c of the inhibitor, Emin is the minimal effect, Emax is the maximal effect, IC50 is the concentration of the inhibitor that produces the half-maximal effect, and h is the Hill coefficient. GraphPad Prism 8.4.0 was used for fitting.

[9] = target: T1, RhoA-TRPM7 interaction (Homo sapiens, UniProt Q96QT4); experiment: In situ proximity ligation assay for endogenous TRPM7 and RhoA; assay type: cell-based; conditions: HuH7 cells, 6 h
T1 construct: proximity ligation assay (PLA) for endogenous TRPM7 and RhoA in HuH7 cells; endogenous in cells; host or cells: HuH7
T1 sequence (Q96QT4 whole entry): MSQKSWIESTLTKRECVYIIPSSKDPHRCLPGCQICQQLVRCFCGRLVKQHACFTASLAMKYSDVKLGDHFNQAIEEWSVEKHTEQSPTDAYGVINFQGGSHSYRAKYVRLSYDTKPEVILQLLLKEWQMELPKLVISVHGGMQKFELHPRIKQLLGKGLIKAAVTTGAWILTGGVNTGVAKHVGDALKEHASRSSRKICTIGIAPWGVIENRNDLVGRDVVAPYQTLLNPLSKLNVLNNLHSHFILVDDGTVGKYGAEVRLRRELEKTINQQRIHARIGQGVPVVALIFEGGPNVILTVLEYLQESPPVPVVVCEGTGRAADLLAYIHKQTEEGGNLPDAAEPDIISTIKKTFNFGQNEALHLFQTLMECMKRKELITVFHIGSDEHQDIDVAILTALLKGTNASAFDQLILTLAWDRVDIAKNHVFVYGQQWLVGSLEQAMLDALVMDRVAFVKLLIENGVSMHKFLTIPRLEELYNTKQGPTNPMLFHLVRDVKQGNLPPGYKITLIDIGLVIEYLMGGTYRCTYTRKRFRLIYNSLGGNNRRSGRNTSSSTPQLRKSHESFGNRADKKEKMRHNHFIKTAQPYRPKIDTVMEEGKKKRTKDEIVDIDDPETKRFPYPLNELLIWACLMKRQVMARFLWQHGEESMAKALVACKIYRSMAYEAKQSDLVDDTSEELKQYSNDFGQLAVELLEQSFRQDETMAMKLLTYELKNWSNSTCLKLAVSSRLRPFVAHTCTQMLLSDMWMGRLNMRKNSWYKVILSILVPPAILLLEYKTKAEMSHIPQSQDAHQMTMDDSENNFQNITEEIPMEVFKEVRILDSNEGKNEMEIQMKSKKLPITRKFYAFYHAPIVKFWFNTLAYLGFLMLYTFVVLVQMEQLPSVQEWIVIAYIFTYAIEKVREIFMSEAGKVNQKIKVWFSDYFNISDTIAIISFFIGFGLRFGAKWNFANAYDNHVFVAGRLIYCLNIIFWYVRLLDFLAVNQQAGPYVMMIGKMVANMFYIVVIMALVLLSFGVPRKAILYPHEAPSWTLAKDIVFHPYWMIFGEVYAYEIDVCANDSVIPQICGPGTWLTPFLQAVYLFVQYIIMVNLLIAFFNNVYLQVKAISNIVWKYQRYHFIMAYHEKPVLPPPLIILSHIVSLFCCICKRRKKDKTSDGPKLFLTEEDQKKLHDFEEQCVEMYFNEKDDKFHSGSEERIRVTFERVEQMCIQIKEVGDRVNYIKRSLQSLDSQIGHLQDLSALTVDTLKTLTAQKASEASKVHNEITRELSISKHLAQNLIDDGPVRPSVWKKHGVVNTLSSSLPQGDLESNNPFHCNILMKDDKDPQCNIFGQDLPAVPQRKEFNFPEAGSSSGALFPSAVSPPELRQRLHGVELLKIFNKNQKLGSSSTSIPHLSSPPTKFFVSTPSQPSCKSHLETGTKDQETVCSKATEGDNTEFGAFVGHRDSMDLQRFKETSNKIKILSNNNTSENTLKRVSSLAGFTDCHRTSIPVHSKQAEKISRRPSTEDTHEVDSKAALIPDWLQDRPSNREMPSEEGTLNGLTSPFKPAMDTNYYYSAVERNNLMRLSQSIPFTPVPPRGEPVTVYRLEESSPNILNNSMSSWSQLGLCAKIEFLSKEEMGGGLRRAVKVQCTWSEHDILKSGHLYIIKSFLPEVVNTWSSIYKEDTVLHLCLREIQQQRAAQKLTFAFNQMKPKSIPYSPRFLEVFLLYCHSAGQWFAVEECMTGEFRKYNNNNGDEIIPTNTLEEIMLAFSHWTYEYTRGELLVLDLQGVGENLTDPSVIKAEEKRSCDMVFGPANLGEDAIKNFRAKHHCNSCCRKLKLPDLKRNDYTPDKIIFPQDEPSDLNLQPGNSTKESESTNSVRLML
Protocol: The DuoLink In situ Red Starter Kit Mouse/Rabbit (Sigma-Aldrich, Merck) was used according to the manufacturer’s protocol for DuoLink In Situ Solutions (Sigma-Aldrich, Merck). Anti-TRPM7/TRPM6 (Abcam, Cambridge, UK), anti-RhoA (NewEast Bioscience, Malvern, PA, USA), anti-MRTF-A (Santa Cruz Biotechnology, Santa Cruz, CA, USA), and anti-Filamin A (Thermo Fisher Scientific, Schwerte, Germany) antibodies were used as primary antibodies for incubation (Table S4). Images were recorded with a fluorescence microscope (Nikon, Düsseldorf, Germany).

[10] = tested on: TGF-β1; experiment: Immunoblotting for TGF-β1; assay type: cell-based; conditions: HuH7 cells, 5 μM
Protocol: (§3) Proteins were denatured by boiling in Laemmli buffer at 95°C. According to their molecular weight, the proteins were separated by SDS-PAGE for 2 h at 100 V using the Bio-Rad Western Blot System (Bio-Rad, Hercules, California, USA) and the power supply peQPOWER 300 (Peqlab Biotechnology, Erlangen, Germany). The proteins were then transferred onto a polyvinylidene fluoride membrane (Merck, Darmstadt, Germany), which was activated in 100% methanol and equilibrated in a transfer buffer. The transfer was done at 350 mA for approximately 2 h. To avoid non-specific protein binding, the membrane was blocked with 5% milk powder in TBS-T. Afterward, the membrane was incubated over night at 4°C with the primary (Table S2) and the respective secondary antibodies for 1 h at room temperature (Table S3). Both was done with gentle shaking. The proteins were detected via chemiluminescence in a luminescent imager (ChemiDoc Imaging System, Bio-Rad).

[11] = tested on: TSPAN5; experiment: Immunoblotting for TSPAN5; assay type: cell-based; conditions: HuH7 cells
Protocol: as §3

[12] = tested on: MRTF-A-GFP; experiment: FLIP assay, nuclear export of MRTF-A-GFP; assay type: cell-based; conditions: HuH7 cells, 5 μM, compared to control cells
Protocol: HuH7 cells were plated on 35-mm cell culture dishes and transfected with 200 ng MRTF-A-GFP and 800 ng pEF-FLAG plasmid DNA by using JetPrime (Polyplus, Illkirch, France). After treatment of the cells with the respective inhibitor, cells were imaged at 37°C, 5% CO2 in an Okolab Bold Line Cage Incubator using a Carl Zeiss LSM 700 confocal microscope with Axio Imager M2 and W Plan-Apochromat 63×/1.0 dipping objective. The software ZEN 2012 was used. Imaging parameters were as follows: pinhole diameter 1, resolution 256 × 256, bit depth 12, speed 7, line average 1, and zoom 2. The cytoplasm was bleached continuously starting after 3 scans with 2-s intervals using 100% laser power (488 nm/10 mW), and the nuclear fluorescence was recorded. The pre-bleach values were set to 1.

[13] = tested on: HuH6 cells; experiment: SA-β-Gal staining (cellular senescence) in HuH6 cells; assay type: cell-based
Protocol: as §2

## Fc1cccc(-c2cccc(Nc3nc4ccccc4[nH]3)c2)c1 [compound 16]
[1]; 10 μM (Figure 6C)
  Effect on cell proliferation: proliferation arrest
[1]
  Inhibitory effects on HCC proliferation as compared to inhibitor 10: significantly improved
  Concentration sufficient to cease HCC cell proliferation: 2.5 µM
[2]
  Concentration at which SRF activity is significantly reduced: 2.5 µM
[3]; 10 µM (Figure S5A)
  Effect on cell proliferation: proliferation arrest
[4]
  Concentration that significantly increases SA-β-Gal-positive cells (senescence induction): 2.5 µM

## c1ccc(-c2cccc(Nc3nc4ccccc4[nH]3)c2)cc1 [compound 10]
[5]; HuH7 cells, 5 μM, 18 h
  Localization of endogenous MRTF-A: cytoplasmic
[2]; 10 μM
  SRF activity decreased to: 25%

## CC(C)c1ccc(-c2cccc(Nc3nc4ccccc4[nH]3)c2)cc1 [compound 14]
[1]; 10 μM (Figure 6C)
  Effect on cell proliferation: proliferation arrest
[1]
  Inhibitory effects on HCC proliferation as compared to inhibitor 10: significantly improved
  Concentration sufficient to cease HCC cell proliferation: 2.5 µM
[2]
  Concentration at which SRF activity is significantly reduced: 2.5 µM
[3]; 10 µM (Figure S5A)
  Effect on cell proliferation: proliferation arrest

## c1ccc2c(c1)CCCC2Nc1nc2ccccc2[nH]1 (stereo not drawn) [compound 1]
[5]; Homo sapiens, Huh-7, HuH7 cells, 30 μM (Figure 3B)
  inhibition at 30 µM: 50%
[6]; 30 μM
  Penetration of HuH7 cells into Matrigel: strongly impaired
[7]
  SK3 affinity compared to NS: =NS
[8]; rNS
  Hill slopes for TRPM7 inhibition: -1.370
[8]
  TRPM7 affinity compared to NS: =NS
[9]; 30 μM
  RhoA-TRPM7 interaction (PLA): inhibited RhoA-TRPM7 interaction
[2]
  SRF activity (5×SRE-luciferase): strong decrease
[4]
  Concentration that significantly increases SA-β-Gal-positive cells (senescence induction): 20 µM

## c1ccc2[nH]c(NC3CCCc4ccncc43)nc2c1 (stereo not drawn) [compound 7]
[7]
  SK3 affinity compared to NS: <NS
[1]; 30 μM NS, rNS, 2, 3, 7, 8, 10 μM 4, 5, 6, 5 days
  Effect on cell proliferation: decreased cell proliferation only marginally
[8]
  Hill slopes for TRPM7 inhibition: -0.9579
  TRPM7 affinity compared to NS: <NS
[3]; 30 µM NS8593, 2, 3, 7, 8, 10 µM 4, 5, 6, 5 days
  Effect on cell proliferation: decreased cell proliferation only marginally

## c1ccc(-c2ccccc2Nc2nc3ccccc3[nH]2)cc1 [compound 9]
[2]; 10 μM
  SRF reporter gene activity: remained largely unchanged

## Cc1ccc2c(c1)C(Nc1nc3ccccc3[nH]1)CCC2 (stereo not drawn) [compound 4]
[7]
  SK3 affinity compared to NS: >NS
[8]
  Hill slopes for TRPM7 inhibition: -1.123
  TRPM7 affinity compared to NS: <NS

## Clc1cc2c(cc1Cl)C(Nc1nc3ccccc3[nH]1)CCC2 (stereo not drawn) [compound 6]
[7]
  SK3 affinity compared to NS: >NS
[8]
  Hill slopes for TRPM7 inhibition: -1.292
  TRPM7 affinity compared to NS: =NS

## COc1ccc2c(c1)C(Nc1nc3ccccc3[nH]1)CCC2 (stereo not drawn) [compound 3]
[7]
  SK3 affinity compared to NS: =NS
[8]
  Hill slopes for TRPM7 inhibition: -1.224
  TRPM7 affinity compared to NS: <NS

## Fc1ccc(-c2ccccc2Nc2nc3ccccc3[nH]2)cc1 [compound 13]
[2]; 10 μM
  SRF reporter gene activity: remained largely unchanged

## c1ccc2c(c1)CCCC2Nc1nc2ccccc2[nH]1 (stereo not drawn) [NS8593, reference compound]
[8]
  Hill slopes for TRPM7 inhibition: -1.432

## Clc1cccc2c1CCCC2Nc1nc2ccccc2[nH]1 (stereo not drawn) [compound 5]
[5]; 5 μM
  MRTF-A nuclear localization reduced to: 12%
[6]; 5 μM
  Penetration of HuH7 cells into Matrigel: strongly impaired
[7]
  SK3 affinity compared to NS: =NS
[1]; titration 2.5, 5, 7.5, 10 μM
  Concentration at which HuH7 cell growth is already significantly reduced: 2.5 µM
[8]
  Hill slopes for TRPM7 inhibition: -1.448
  TRPM7 affinity compared to NS: >NS
[9]; 5 μM
  RhoA-TRPM7 interaction (PLA): inhibited RhoA-TRPM7 interaction
[2]
  Reduction in SRF activity: 60%
  SRF activity (5×SRE-luciferase): strong decrease
[10]
  TGF-β1 expression (protein level): almost completely abolished
[4]
  Concentration that significantly increases SA-β-Gal-positive cells (senescence induction): 5 µM
[4]; compared with NS8593
  Fold lower concentration than NS8593 for inducing OIS: 6 fold
[11]; 5 μM
  TSPAN5 expression (protein level): almost completely abolished
[12]
  MRTF-A-GFP fluorescence remaining in the nucleus after 80 s of bleaching: less MRTF-A-GFP fluorescence remaining in the nucleus
[13]
  Concentration that significantly increases SA-β-Gal-positive cells (senescence induction): 5 µM

## c1ccc2[nH]c(NC3CCCc4sccc43)nc2c1 (stereo not drawn) [compound 8]
[5]; 30 μM
  MRTF-A nuclear localization reduced to: 12%
[6]; 30 μM
  Penetration of HuH7 cells into Matrigel: strongly impaired
[7]
  SK3 affinity compared to NS: <NS
[8]
  Hill slopes for TRPM7 inhibition: -1.210
  TRPM7 affinity compared to NS: <NS
[9]; 30 μM
  RhoA-TRPM7 interaction (PLA): inhibited RhoA-TRPM7 interaction
[2]
  Reduction in SRF activity: 30%
  SRF activity (5×SRE-luciferase): strong decrease
[4]
  Concentration that significantly increases SA-β-Gal-positive cells (senescence induction): 20 µM
[11]
  Concentration required to significantly reduce TSPAN5 expression: 20 µM

## Fc1ccc2c(c1)C(Nc1nc3ccccc3[nH]1)CCC2 (stereo not drawn) [compound 2]
[7]
  SK3 affinity compared to NS: >NS
[8]
  Hill slopes for TRPM7 inhibition: -1.165
  TRPM7 affinity compared to NS: <NS
